In PMC4770715, “LIM kinase inhibitors disrupt mitotic microtubule organization and impair tumor cell proliferation” (Oncotarget, 2015):

Legend:
Experiment in all cases: biochemical
Design in all cases: KINOMEscan active-site competition binding, percent of control (100 = no competition)
Settings in all cases: competition binding, percent control
[1] = target: T1, ABL1(T315I)-nonphosphorylated (Homo sapiens, UniProt P00519, T315I)
T1 construct: nonphosphorylated

[2] = target: T2, ABL1-nonphosphorylated (Homo sapiens, UniProt P00519)
T2 construct: nonphosphorylated

[3] = target: ABL2 (Homo sapiens, UniProt P42684)
ABL2, sequence (P42684 whole entry): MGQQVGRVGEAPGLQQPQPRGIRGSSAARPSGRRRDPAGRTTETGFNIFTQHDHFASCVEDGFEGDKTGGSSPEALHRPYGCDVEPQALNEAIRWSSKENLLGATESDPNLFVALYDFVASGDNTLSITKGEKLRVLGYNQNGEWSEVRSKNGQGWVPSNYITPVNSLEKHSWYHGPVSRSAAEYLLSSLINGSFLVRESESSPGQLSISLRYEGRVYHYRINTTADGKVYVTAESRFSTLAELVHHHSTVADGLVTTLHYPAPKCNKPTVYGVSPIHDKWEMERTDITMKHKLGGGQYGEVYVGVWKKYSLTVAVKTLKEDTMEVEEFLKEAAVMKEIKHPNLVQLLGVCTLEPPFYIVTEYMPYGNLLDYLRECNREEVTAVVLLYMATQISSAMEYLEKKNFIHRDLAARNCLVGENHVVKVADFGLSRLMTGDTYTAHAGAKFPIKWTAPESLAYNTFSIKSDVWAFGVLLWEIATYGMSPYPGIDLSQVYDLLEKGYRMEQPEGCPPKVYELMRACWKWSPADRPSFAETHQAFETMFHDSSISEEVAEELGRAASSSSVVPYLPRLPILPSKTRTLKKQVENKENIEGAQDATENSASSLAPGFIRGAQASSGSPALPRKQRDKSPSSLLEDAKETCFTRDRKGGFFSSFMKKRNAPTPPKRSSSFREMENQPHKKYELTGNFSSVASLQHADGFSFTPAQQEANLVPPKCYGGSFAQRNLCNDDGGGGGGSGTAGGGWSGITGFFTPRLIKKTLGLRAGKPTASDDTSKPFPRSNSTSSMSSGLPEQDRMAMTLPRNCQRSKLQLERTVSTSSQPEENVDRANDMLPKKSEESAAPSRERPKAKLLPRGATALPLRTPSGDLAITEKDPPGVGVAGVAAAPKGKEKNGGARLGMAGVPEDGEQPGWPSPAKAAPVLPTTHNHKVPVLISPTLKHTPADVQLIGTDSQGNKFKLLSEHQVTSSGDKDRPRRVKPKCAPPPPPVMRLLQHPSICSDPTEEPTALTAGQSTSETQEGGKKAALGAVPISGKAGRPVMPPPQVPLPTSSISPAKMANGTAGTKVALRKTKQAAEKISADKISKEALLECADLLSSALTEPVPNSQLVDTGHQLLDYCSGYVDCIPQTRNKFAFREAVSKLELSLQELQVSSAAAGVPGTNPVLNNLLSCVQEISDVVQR

[4] = target: ACVR2B (Homo sapiens, UniProt Q13705)
[5] = target: T3, AMPK-alpha1 (Homo sapiens, UniProt Q13131)
T3 construct: gene PRKAA1

[6] = target: BMPR1B (Homo sapiens, UniProt O00238)
[7] = target: BRAF (Homo sapiens, UniProt P15056)
[8] = target: CAMK1 (Homo sapiens, UniProt Q14012)
[9] = target: CDK9 (Homo sapiens, UniProt P50750)
CDK9, sequence (P50750 whole entry): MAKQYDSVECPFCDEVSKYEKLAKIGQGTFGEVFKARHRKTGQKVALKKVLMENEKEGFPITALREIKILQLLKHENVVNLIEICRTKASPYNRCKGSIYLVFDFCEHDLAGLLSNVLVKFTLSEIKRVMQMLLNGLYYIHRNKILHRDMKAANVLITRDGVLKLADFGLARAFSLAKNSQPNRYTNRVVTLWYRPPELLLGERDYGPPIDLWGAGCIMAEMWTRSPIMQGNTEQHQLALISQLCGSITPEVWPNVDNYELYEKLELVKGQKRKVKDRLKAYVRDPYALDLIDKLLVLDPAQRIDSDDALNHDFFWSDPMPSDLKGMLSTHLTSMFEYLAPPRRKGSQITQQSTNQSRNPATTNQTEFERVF

[10] = target: CSNK1G1 (Homo sapiens, UniProt Q9HCP0)
[11] = target: HIPK4 (Homo sapiens, UniProt Q8NE63)
HIPK4, sequence (Q8NE63 whole entry): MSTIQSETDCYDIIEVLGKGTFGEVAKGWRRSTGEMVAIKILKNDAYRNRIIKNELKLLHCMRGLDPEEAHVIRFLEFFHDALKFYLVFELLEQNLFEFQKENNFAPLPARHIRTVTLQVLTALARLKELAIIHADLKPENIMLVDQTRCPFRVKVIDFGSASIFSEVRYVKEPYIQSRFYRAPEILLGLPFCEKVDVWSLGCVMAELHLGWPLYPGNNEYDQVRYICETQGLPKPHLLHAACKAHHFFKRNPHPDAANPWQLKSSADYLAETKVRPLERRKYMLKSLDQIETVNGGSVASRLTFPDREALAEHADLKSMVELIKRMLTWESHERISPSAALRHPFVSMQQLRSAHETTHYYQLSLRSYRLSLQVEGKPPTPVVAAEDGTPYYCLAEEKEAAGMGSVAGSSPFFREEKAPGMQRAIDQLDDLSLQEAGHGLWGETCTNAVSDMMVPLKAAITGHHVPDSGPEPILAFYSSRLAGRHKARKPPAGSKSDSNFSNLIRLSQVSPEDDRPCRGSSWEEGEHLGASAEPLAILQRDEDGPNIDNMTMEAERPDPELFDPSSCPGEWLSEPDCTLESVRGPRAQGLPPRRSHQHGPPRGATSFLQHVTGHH

[12] = target: IGF1R (Homo sapiens, UniProt P08069)
[13] = target: T4, MEK5 (Homo sapiens, UniProt Q13163)
T4 construct: gene MAP2K5

[14] = target: T5, MLK3 (Homo sapiens, UniProt Q16584)
T5 construct: gene MAP3K11
T5 sequence (Q16584 whole entry): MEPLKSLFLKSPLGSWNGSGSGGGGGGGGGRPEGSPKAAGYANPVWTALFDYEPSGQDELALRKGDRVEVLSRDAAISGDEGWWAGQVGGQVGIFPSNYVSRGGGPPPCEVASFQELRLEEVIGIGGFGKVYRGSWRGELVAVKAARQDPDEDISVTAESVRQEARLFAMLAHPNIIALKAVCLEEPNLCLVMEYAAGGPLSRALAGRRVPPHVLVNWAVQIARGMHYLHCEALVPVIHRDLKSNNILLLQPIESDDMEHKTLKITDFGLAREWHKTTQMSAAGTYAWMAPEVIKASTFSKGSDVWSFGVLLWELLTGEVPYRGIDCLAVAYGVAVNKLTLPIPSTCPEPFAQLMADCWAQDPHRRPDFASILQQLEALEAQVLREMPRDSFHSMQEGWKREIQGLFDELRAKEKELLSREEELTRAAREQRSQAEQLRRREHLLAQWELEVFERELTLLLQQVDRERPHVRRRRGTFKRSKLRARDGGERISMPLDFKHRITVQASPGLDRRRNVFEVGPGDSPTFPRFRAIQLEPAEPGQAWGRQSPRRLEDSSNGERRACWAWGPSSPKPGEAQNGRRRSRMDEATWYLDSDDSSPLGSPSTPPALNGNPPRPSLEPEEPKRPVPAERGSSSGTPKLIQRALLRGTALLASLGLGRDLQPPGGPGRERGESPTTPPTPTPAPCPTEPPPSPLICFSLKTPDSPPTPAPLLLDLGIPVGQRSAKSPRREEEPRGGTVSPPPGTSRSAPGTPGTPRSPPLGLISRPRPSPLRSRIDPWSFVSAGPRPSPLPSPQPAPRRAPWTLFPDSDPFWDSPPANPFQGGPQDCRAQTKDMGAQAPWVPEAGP

[15] = target: T6, MST1 (Homo sapiens, UniProt Q13043)
T6 construct: gene STK4
T6 sequence (Q13043 whole entry): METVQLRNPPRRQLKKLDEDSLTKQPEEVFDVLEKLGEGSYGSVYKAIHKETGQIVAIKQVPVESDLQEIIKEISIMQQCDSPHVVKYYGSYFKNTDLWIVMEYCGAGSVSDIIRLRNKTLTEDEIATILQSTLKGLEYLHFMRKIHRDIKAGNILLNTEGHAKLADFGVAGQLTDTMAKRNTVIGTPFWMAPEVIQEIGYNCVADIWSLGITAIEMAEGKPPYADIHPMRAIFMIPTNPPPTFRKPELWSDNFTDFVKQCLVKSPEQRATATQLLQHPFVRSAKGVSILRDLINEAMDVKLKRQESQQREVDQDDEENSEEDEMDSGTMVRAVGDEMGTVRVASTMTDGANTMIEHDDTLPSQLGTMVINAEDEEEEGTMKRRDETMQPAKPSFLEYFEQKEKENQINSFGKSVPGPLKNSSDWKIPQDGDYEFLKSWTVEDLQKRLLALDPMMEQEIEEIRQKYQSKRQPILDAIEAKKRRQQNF

[16] = target: T7, NDR1 (Homo sapiens, UniProt Q15208)
T7 construct: gene STK38

[17] = target: NEK5 (Homo sapiens, UniProt Q6P3R8)
NEK5, sequence (Q6P3R8 whole entry): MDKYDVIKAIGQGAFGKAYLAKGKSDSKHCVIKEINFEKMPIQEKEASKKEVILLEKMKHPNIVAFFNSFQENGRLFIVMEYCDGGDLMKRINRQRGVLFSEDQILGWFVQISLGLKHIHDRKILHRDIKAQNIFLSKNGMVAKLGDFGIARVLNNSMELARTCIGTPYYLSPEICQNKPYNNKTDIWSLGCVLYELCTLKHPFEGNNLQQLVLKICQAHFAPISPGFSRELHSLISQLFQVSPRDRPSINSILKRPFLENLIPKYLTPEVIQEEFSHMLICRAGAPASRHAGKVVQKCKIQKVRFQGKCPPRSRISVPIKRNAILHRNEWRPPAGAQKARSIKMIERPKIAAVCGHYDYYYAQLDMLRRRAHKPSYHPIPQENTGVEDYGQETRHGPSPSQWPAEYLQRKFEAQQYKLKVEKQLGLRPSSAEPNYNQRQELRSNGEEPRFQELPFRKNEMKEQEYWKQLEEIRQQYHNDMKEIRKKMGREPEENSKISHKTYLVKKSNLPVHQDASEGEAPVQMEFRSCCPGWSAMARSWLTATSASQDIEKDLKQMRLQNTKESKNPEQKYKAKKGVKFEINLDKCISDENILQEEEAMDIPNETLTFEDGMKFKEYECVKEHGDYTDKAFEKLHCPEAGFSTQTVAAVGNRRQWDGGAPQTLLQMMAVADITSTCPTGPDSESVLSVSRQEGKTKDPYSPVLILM

[18] = target: PIK3CG (Homo sapiens, UniProt P48736)
[19] = target: PRKX (Homo sapiens, UniProt P51817)
[20] = target: RET(M918T) (Homo sapiens, UniProt P07949, M918T)
[21] = target: T8, RIPK5 (Homo sapiens, UniProt Q6XUX3)
T8 construct: gene DSTYK

[22] = target: T9, RPS6KA4(Kin.Dom.1-N-terminal) (Homo sapiens, UniProt O75676)
T9 construct: Kin.Dom.1-N-terminal

[23] = target: TTK (Homo sapiens, UniProt P33981)
TTK, sequence (P33981 whole entry): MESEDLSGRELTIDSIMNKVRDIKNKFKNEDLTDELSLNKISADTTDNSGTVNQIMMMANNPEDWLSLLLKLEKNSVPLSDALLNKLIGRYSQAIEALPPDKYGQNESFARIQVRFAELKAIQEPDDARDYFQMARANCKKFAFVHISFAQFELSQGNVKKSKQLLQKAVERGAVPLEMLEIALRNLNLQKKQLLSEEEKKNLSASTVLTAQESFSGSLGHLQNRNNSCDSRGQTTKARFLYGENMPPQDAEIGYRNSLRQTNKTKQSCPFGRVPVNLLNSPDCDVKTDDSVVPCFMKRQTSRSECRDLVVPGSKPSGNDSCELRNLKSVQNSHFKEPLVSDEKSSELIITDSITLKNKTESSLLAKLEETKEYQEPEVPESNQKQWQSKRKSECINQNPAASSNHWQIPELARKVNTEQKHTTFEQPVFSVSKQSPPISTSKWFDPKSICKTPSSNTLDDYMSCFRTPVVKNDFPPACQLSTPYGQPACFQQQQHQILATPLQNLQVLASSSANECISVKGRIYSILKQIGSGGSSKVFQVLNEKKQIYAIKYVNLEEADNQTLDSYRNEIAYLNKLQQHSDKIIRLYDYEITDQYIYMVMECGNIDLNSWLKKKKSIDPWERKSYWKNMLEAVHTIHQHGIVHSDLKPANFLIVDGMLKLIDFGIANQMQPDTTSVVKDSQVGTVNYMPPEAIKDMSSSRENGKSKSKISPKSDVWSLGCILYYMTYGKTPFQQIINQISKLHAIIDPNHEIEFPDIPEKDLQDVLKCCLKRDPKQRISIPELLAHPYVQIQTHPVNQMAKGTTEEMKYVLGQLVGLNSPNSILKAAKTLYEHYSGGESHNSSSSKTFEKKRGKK

Structure (SMILES)	remaining binding at 10 µM [1] [%]	remaining binding at 10 µM [2] [%]	remaining binding at 10 µM [3] [%]	remaining binding at 10 µM [4] [%]	remaining binding at 10 µM [5] [%]	remaining binding at 10 µM [6] [%]	remaining binding at 10 µM [7] [%]	remaining binding at 10 µM [8] [%]	remaining binding at 10 µM [9] [%]	remaining binding at 10 µM [10] [%]	remaining binding at 10 µM [11] [%]	remaining binding at 10 µM [12] [%]	remaining binding at 10 µM [13] [%]	remaining binding at 10 µM [14] [%]	remaining binding at 10 µM [15] [%]	remaining binding at 10 µM [16] [%]	remaining binding at 10 µM [17] [%]	remaining binding at 10 µM [18] [%]	remaining binding at 10 µM [19] [%]	remaining binding at 10 µM [20] [%]	other results
COc1ccc(-c2cnccc2-c2cnc(NC(=O)C(C)C)s2)c(C(F)(F)F)c1 [CRT0105446, N-{5-[3-(4-Methoxy-2-trifluoromethyl-phenyl)-pyridin-4-yl]-hiazol-2-yl}-isobutyramide]	100	82	100	100	1.1	92	79	62	28	94	75	100	100	100	100	100	99	96	100	91	remaining binding at 10 µM [21]: 86%; remaining binding at 10 µM [22]: 100%; remaining binding at 10 µM [23]: 32%
Cc1ccc(-c2cnccc2-c2cnc(Nc3ccc(O)cc3)s2)c(Cl)c1 [CRT0105950, 4-{5-[3-(2-Chloro-4-methyl-phenyl)-pyridin-4-yl]-thiazol-2-ylamino}-phenol]	82	43	58	32	2.1	29	93	9.4	65	82	16	3.6	60	43	3.4	86	65	82	100	0.35	remaining binding at 10 µM [21]: 45%; remaining binding at 10 µM [22]: 14%; remaining binding at 10 µM [23]: 1.7%
